Columns and labels:
[1] = system: cotyledons harvested from etiolated cucumber seedlings; assay: Percent Efflux test (Efflux Experiment); assay type: tissue-based, Cucumis sativus L.; details: 100 nM concentration
Protocol: The enzyme-inhibiting agent is preferably one which has a high capacity for disrupting the plasmalemma of plant material. One test for that capacity is the Efflux Experiment described in the article by Halling and Peters in Plant Physiology, 84, 1114-5 (1987).
The Percent Efflux test employs cotyledons harvested from etiolated cucumber seedlings. In an initial step a mass of cotyledons is treated in the dark with an aqueous buffered solution containing a radiolabelled sugar. The amount of the sugar taken up by the cotyledons is then measured (by counting, as described below). […] The cotyledons, in contact with the aqueous solutions, are then exposed to light for 16 hours, and then separated from the aqueous solutions; the latter are then measured (by counting) to determine their contents of radiolabelled material. The results are expressed as Percent Efflux Which is calculated as follows, where S is the count of radiolabelled material (per cotyledon) taken up by the cotyledons in their initial treatment, ST is the count of radiolabelled material (per cotyledon) in the aqueous solution containing the compound to be tested, after the exposure to light and Sc is the count of radiolabelled material (per cotyledon) in the aqueous solution of the control, after exposure to light: [formula] […]

cabbage loopers = assay: Insecticidal test against cabbage loopers; details: in vivo
mosquito larvae = assay: Insecticidal test against mosquito larvae; details: in vivo
murine leukemia cells = details: cited from earlier work
human erythrocytes = details: introduced into human erythrocytes; cited from earlier work
tumors = details: injected into animals; cited from earlier work
[2] = system: enzymatic conversion of Proto IX to magnesium Proto IX; assay: Conversion of Proto IX to magnesium Proto IX in chloroplast suspension; assay type: biochemical, Cucumber (Cucumis sativus L.); details: 10 μm AFM, in the presence of ATP
HeLa cells [3] = assay: Growth inhibition and Proto IX accumulation in HeLa cells (Example 2); assay type: cell-based, human; details: 100 μM agent
Protocol: HeLa cells, in logarithmic growth phase having been cultured for 6 days in six one-liter Falcon tissue culture flasks at 37° C.), were washed in phosphate buffered saline (PBS). A 0.25% solution of trypsin in PBS was added, and, after several minutes, the cells were gently removed and placed into 110 mL of a 25 mM solution of Hepes in Minimum Essential Medium (MEM), supplemented with 10% v/v inactivated calf serum, 1.1 mL of a 200 mM solution of glutamine in 0.85% saline solution, and 11,000 units of penicillin/11,000 mcg streptomycin.
Aliquots (5.0 mL each) of the resuspended cell culture were placed into 50 mL Falcon tissue culture flasks, with or without herbicide, and incubated in the dark at 37° C. for 4 days, the herbicide being added in dilute acetone solution as in Example 1. Acetone was also added to the controls to provide a concentration of acetone of 0.2% v/v therein. The amount of herbicide was such as to provide the concentrations specified in Table 2 below.
Extraction: The media from each of the flasks were placed in glass round bottom tubes, while the cells adhering to the bottom of the flasks were loosened by the addition of 0.5 mL of a 0.25% solution of trypsin in PBS, and after several minutes at 37° C., then washed from the flasks and recombined with their media. Aliquots of 100 μL were then removed from each cell suspension to determine cell density. The remaining 5.4 mL of cell suspension was then sonified for 30 minutes to disrupt the cells.
Ten mL of basic acetone (90% acetone:10% 0.1 N NH4 OH) was then added to each tube, and the tubes were centrifuged to remove protein and cell debris. Five mL of water was added to the supernatant, followed by 0.5 mL of a saturated aqueous solution of NaCl. The pH was then adjusted to 6.8 by the dropwise addition of 2 M KH2 PO4. The aqueous acetone extract was then loaded onto a C8 Baker Prep column. The columns were dried and then washed with 2 mL of water. The tetrapyrroles were eluted with 3 mL of 90/10 CH3 OH/H2 O. As in Example 1, all these extraction procedures were carried out substantially entirely under non-protoporphrin IX-exciting light (e.g. green light) or in the dark (e.g. in opaque covered containers). The fluorescence of the extracts was then determined on a SPEX spectrofluorometer. Protoporphyrin IX ("Proto IX") accumulation was quantified utilizing predetermined extinction coefficients.

[4] = molecular target: Protoporphyrinogen Oxidase; assay: Protoporphyrinogen oxidase assay using isolated enzyme; assay type: biochemical, Peas (Pisum sativum var. Little Marvel); details: isolated pea etioplast enzyme
Protocol: Plant Material and Homogenization: Peas (Pisum sativum var. Little Marvel) germinated at 20° C. in a dark growth chamber ten days. Plants were illuminated for one hour per day, which allowed for significant leaf expansion while minimizing chlorophyll synthesis. Leaves were pale yellow-green in color.
The leaves were then homogenized in 500 mL of grinding media consisting of 0.5 M mannitol, 10 mM HEPES, 20 mM TES, 1 mM EDTA, 1 mM MgCl2, 5 mM cysteine, and 0.2 BSA, pH 7.7. The brei was then passed through four layers of cheesecloth, then through a 43-micron nylon mesh. The hemogenate was then centrifuged at 4000 g for 3 minutes. The resultant pellet was utilized for plastid isolation.
Etioplast Isolation and Purification: The pellet (plastid fraction) was resuspended in 40 mL of assay media (grinding media minus cysteine and containing 1 mM DTE and 1% ESA) and centrifuged at 150 g to remove cellular debris. The resultant supernatant was centrifuged at 4000 g, and the resuspended pellets were overlaid on 40% Percoll. […]
Protein content was determined utilizing the BioRad method. […]
Purification Utilizing DEAE Chromatography: A 0.75 mL volume of plastid-solubilized-enzyme preparation was loaded onto a Waters Protein-Pak DEAE-5PW column (8 mm×7.5 cm) equilibrated with Elution Buffer. […] Peaks were detected using a Waters 494 UV detector at 260 nm, sensitivity:1AU. […]

HeLa cells [5] = assay: Tetrapyrrole accumulation in treated HeLa cells (Example 1); assay type: cell-based, human; details: 100 μM agent, 3 days in the dark
Protocol: HeLa cells (a human tumor cell line commonly employed for tumor research and obtained from the American Type Culture Collection), in logarithmic growth phase (having been cultured at 37° C. for five days in one-liter Falcon tissue culture flasks), were washed in phosphate buffered saline (PBS). A 0.25% solution of trypsin in PBS (2 mL) was added, and, after several minutes, the cells were gently removed from the flask and placed into 110 mL of a 25 mM solution of Hepes in Minimum Essential Medium (MEM) supplemented with 10% v/v inactivated calf serum, 1.1 mL of a 200 mM solution of glutamine in 0.85% saline solution, and 11,000 units of penicillin/11,000 mcg streptomycin.
Then, 5.0 mL aliquots of the resulting resuspended cell culture were each placed into a 50 mL Falcon tissue culture flask and (except for the control) mixed with the treating agent. The aliquots were then incubated in the dark at 37° C. for three days. The cells were then removed and extracted under green light in the following manner:
Cells were removed from the bottom of the flask with the addition of 0.8 mL of a 0.25% solution of trypsin in PBS. After 1 hour of incubation in the dark, cells and medium were removed from the flasks, placed into round bottom centrifuge tubes, and then subjected to two rounds of freeze-thaw conditions to disrupt the cells and allow for extraction.
Ten mL of basic acetone (90% acetone:10% of 0.1 N NH4 OH) was then added to each tube, and the tubes were centrifuged to remove protein and cell debris. Five mL of water was added to the supernatant, followed by 0.5 mL of a saturated aqueous solution of NaCl. The pH was then adjusted to 6.8 by the dropwise addition of 2 M KH2 PO4. The aqueous acetone extract was then loaded onto a C8 Baker Prep column. The columns were dried and then washed with 2 mL of water. The tetrapyrroles were eluted with 2×1.5 mL volumes of 90/10 CH3 OH/H2 O. Extracts were then quantified on a spectrofluorometer.
Agent A was supplied as a filter-sterilized 250 mM solution in water, pH 6.5. Agents B, C, D, and E were supplied as 50 mM solutions in acetone. Acetone was also added to the control to provide a concentration of 0.2% v/v therein. The amounts of the agents added to the cell cultures were such as to give the concentrations specified in the Table 1 below. The amounts of the tetrapyrrole protoporphyrin IX ("Proto IX") produced are shown in that Table.

C#CCOc1cc(-n2nc(C)n(C(F)F)c2=O)c(F)cc1Cl [1-(4-chloro-2-fluoro-5-propargyloxyphenyl) -3-methyl-4-difluoromethyl-Δ^2-1,2,4-triazolin-5-one]
total efflux [1]: over 90%

CCOC(=O)C(C)OC(=O)c1cc(Oc2ccc(C(F)(F)F)cc2Cl)ccc1[N+](=O)[O-] (stereo not shown) [lactophen, 1-(carboethoxy)ethyl 5-(2-chloro-4-trifluoromethylphenoxy) -2-nitrobenzoate, reference compound]
total efflux [1]: over 90%

C#CCOc1cc(-n2nc(C)n(C(F)F)c2=O)c(F)cc1Cl [Agent 7f]
activity against cabbage loopers (cabbage loopers): active | activity against mosquito larvae (mosquito larvae): active

C=CC1=C(C)c2cc3[nH]c(cc4nc(cc5[nH]c(cc1n2)c(C)c5CCC(=O)O)C(CCC(=O)O)=C4C)c(C)c3C=C [protoporphyrin]
photosensitizing potency (murine leukemia cells): most potent photosensitizing agent of those tested | photosensitizing effect (human erythrocytes): marked photosensitizing effect | protoporphyrin in the tumors after injection (tumors): no detectable protoporphyrin in the tumors

COC(=O)c1cc(Oc2ccc(C(F)(F)F)cc2Cl)ccc1[N+](=O)[O-] [Agent B, Acifluorfen-methyl]
effect on enzymatic conversion of Proto IX to magnesium Proto IX [2]: no inhibiting effect | activity against cabbage loopers (cabbage loopers): active | Amount of Proto IX (HeLa cells [3]; average amount per 10^6 cells): 5.20 pmol | inhibition at 100 µM (HeLa cells [3]; Homo sapiens, HeLa, 96 h, 4 days in the dark): 99% | activity against mosquito larvae (mosquito larvae): active | pI50 (negative log of the I50 Molarity) [4]: 7.1 | IC50 ([4]; read-out: I50): 80 nM | Amount of Proto IX (HeLa cells [5]): 1.3 pmol | Fluorescence Emission cps 400/630 (HeLa cells [5]): 12921 cps
